Results as given in ChEMBL document CHEMBL1149137, “Synthesis, screening, and molecular modeling of new potent and selective antagonists at the alpha 1d adrenergic receptor” (J Med Chem, 2004).

Tests used:
[1] = molecular target: Alpha-1D adrenergic receptor (Homo sapiens) (UniProt P25100); test: Binding affinity to the adrenergic receptor alpha-1D of cloned human receptor
[2] = molecular target: T1, 5-hydroxytryptamine receptor 1A (Homo sapiens, UniProt P08908); test: Binding affinity to human 5-hydroxytryptamine 1A receptor was measured using [3H]-8-hydroxy-2-(di-n-propylamine) tetraline [3H]8-OH-DPAT) as radioligand
T1 sequence (P08908 whole entry): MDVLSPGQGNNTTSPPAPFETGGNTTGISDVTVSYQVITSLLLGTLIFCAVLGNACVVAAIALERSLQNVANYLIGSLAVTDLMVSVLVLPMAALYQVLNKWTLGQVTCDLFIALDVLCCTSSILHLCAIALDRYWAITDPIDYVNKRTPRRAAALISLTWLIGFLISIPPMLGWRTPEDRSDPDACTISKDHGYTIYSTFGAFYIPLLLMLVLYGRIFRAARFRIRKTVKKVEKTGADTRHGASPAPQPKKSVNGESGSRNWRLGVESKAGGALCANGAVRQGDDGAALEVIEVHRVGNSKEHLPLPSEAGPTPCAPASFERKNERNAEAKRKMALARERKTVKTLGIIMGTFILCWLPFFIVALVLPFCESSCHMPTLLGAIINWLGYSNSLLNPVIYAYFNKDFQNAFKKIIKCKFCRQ

[3] = molecular target: Alpha-1A adrenergic receptor (Homo sapiens) (UniProt P35348); test: In vitro binding affinity towards alpha-1A adrenergic receptor through displacement of [3H]prazosin in cloned human receptor.

Structure (SMILES)	Ki [1] [nM]	Ki [2] [nM]	Ki [3] [nM]
CCOC(=O)c1ccccc1N1CCN(CCN2C(=O)CC3(CCCC3)CC2=O)CC1	29	4.07	–
COc1ccccc1N1CCN(CCN2C=CC3(CCCC3)CC2=O)CC1	3.15	3.84	29.2
O=C1CC2(CCCC2)CC(=O)N1CCN1CCN(c2ccccc2[N+](=O)[O-])CC1	15.3	11.3	–
O=C1CC2(CCCC2)CC(=O)N1CCN1CCN(c2ccccc2Br)CC1	1.6	1.29	376
CN(CCNc1cc(Cl)ccc1Cl)CCN1C(=O)CC2(CCCC2)CC1=O	674	717	–
CC1(C)CC(=O)N(CCN2CCN(c3ccccc3Cl)CC2)C(=O)C1	23.4	65.8	–
CN(CCN1C(=O)CC2(CCCC2)CC1=O)CC(=O)Nc1cc(Cl)ccc1Cl	> 1000	> 10000	–
CC(C)c1ccc(N2CCN(CCN3C(=O)CC4(CCCC4)CC3=O)CC2)cc1	> 1000	> 1000	–
CC(CN1CCN(c2cc(Cl)ccc2Cl)CC1)N1C(=O)CC2(CCCC2)CC1=O (configuration not stated)	0.41	–	187
CC(C)Oc1ccccc1N1CCN(CCN2C(=O)CC3(CCCC3)CC2=O)CC1	2.9	0.54	3.54
O=C1CC2(CCCC2)CC(=O)N1CCN1CCN(c2cccc(Cl)c2)CC1	2.02	1.09	> 1000
O=C1CC2(CCCC2)CC(=O)N1CCN1CCN(c2cc([N+](=O)[O-])ccc2Cl)CC1	18.2	> 1000	44
COc1ccccc1OCCN(C)CCN1C(=O)CC2(CCCC2)CC1=O	18.2	259	> 1000
O=C1CC2(CCCC2)CC(=O)N1CCN1CCN(c2ccccc2O)CC1	16.1	1.36	–
O=C1CC2(CCCC2)CC(=O)N1CCN1CCC(c2ccccc2Cl)CC1	1.11	5.25	2.01
CC1CN(c2ccccc2[N+](=O)[O-])CCN1CCN1C(=O)CC2(CCCC2)CC1=O (configuration not stated)	597	86.2	–
CN(C(=O)CNCCN1C(=O)CC2(CCCC2)CC1=O)c1cc(Cl)ccc1Cl	> 1000	> 1000	–
O=C1CC2(CCCC2)CC(=O)N1CCN1CCN(c2ccc(F)cc2)CC1	24.1	153	–
O=C1C=CC(=O)N1CCN1CCN(c2cc(Cl)ccc2Cl)CC1	126	> 1000	–
COc1ccccc1N1CCN(CCN2C(=O)CC3(CCN(C(C)=O)CC3)CC2=O)CC1	429	> 10	1520
O=C1CC2(CCCC2)CC(=O)N1CCN1CCN(c2cccc(Cl)c2Cl)CC1	12.7	3.37	–
O=C1CC2(CCCC2)CC(=O)N1CCN1CCN(c2ccc(Cl)cc2Cl)CC1	3.89	12.1	–
Cc1ccccc1N1CCN(CCN2C(=O)CC3(CCCC3)CC2=O)CC1	2.16	25.4	584
O=C1CC2(CCCC2)CC(=O)N1CCN1CCN(c2ccccc2C2CC2)CC1	1.34	1.2	10.9
O=C1CC2(CCCC2)CC(=O)N1CCN1CCN(c2cc(C(F)(F)F)ccc2F)CC1	7.56	–	> 1000
O=C1CC2(CCCC2)CC(=O)N1CCCCN1CCN(c2cc(Cl)ccc2Cl)CC1	0.67	26.1	1.81
O=C1CC2(CCCC2)CCN1CCN1CCN(c2ccccc2Cl)CC1	0.54	1.06	87.5
O=C1CC2(CCCC2)CC(=O)N1CCN1CCN(c2ccc(Cl)c(Cl)c2)CC1	5.38	19.8	–
O=C1CC2(CCCC2)CC(=O)N1CCNCCOc1ccccc1Cl	> 1000	> 1000	–
O=C1CC2(CCCC2)CC(=O)N1CCN1CCN(c2c(Cl)cccc2Cl)CC1	29.9	234	–
